Assay results taken from ChEMBL document CHEMBL3997817, “Filamenting temperature-sensitive mutant Z inhibitors from Glycyrrhiza glabra and their inhibitory mode of action” (Bioorg Med Chem Lett, 2017).
≈ marks a conversion by molar mass, not a printed value.

How the values were obtained:
Bacillus subtilis [1] = assay: Antibacterial activity against Bacillus subtilis NBRC 3134 after overnight incubation by MTT assay; type: functional
Bacillus subtilis [2] = assay: Inhibition of Bacillus subtilis N-terminal hexahistidine-tagged FtsZ GTPase activity expressed in Escherichia coli BL21 (DE3) assessed as residual activity at 20 uM after 1 hr relative to control
Bacillus subtilis [3] = assay: Inhibition of Bacillus subtilis N-terminal hexahistidine-tagged FtsZ GTPase activity expressed in Escherichia coli BL21 (DE3) assessed as residual activity at 200 uM after 1 hr relative to control
Bacillus subtilis [4] = assay: Inhibition of Bacillus subtilis N-terminal hexahistidine-tagged FtsZ V307R mutant GTPase activity expressed in Escherichia coli BL21 (DE3) after 1 hr relative to wild type protein; conditions: concentration not given here
Bacillus subtilis [5] = assay: Inhibition of Bacillus subtilis N-terminal hexahistidine-tagged FtsZ GTPase activity expressed in Escherichia coli BL21 (DE3) assessed as residual activity at 100 uM after 1 hr relative to control
[6] = Uncompetitive inhibition of Bacillus subtilis N-terminal hexahistidine-tagged FtsZ GTPase activity expressed in Escherichia coli BL21 (DE3) after 1 hr by Lineweaver-Burk plot analysis
Bacillus subtilis [7] = assay: Inhibition of Bacillus subtilis N-terminal hexahistidine-tagged FtsZ GTPase activity expressed in Escherichia coli BL21 (DE3) at 100 uM after 1 hr relative to control
Escherichia coli [8] = assay: Inhibition of Escherichia coli N-terminal hexahistidine-tagged FtsZ GTPase activity expressed in Escherichia coli BL21 (DE3) assessed as residual activity at 100 uM after 1 hr relative to control
Escherichia coli [9] = assay: Inhibition of Escherichia coli N-terminal hexahistidine-tagged FtsZ GTPase activity expressed in Escherichia coli BL21 (DE3) assessed as residual activity at 20 uM after 1 hr relative to control
Escherichia coli [10] = assay: Inhibition of Escherichia coli N-terminal hexahistidine-tagged FtsZ GTPase activity expressed in Escherichia coli BL21 (DE3) assessed as residual activity at 200 uM after 1 hr relative to control

Row | Compound | MIC (Bacillus subtilis [1]) | Activity (Bacillus subtilis [2]) | Activity (Bacillus subtilis [3]) | inhibition (Bacillus subtilis [4]) | Activity (Bacillus subtilis [5]) | fold change (FC) (Bacillus subtilis [7]) | Activity (Escherichia coli [8]) | Activity (Escherichia coli [9]) | Activity (Escherichia coli [10]) | Ki [6]
1 | CC(C)=CCc1cc(-c2oc3cc(O)cc(O)c3c(=O)c2O)ccc1O [ISOLICOFLAVONOL] | 40 µM (≈ 14.2 µg/mL) | 48.5% | 7.7% | 60% | 10.1% | 0.8 to 7.7 | 61.2% | 95.2% |  | 37.7 µM
2 | COc1c(CC=C(C)C)c(O)cc(O)c1-c1coc2cc(O)ccc2c1=O |  | 97.4% | 90.2% |  | 96.8% | 0.8 to 7.7 | 105% | 101% | 106% | 
3 | COc1c(CC=C(C)C)c(O)cc2oc(=O)c(-c3ccc(O)cc3O)cc12 |  | 87.8% | 30.4% |  | 52.3% | 0.8 to 7.7 | 85.6% | 95.9% | 67.3% | 
4 | COc1c(CC=C(C)C)c(O)cc2oc(-c3ccc(O)cc3O)cc12 |  | 98.1% | 35.3% |  | 55.5% | 0.8 to 7.7 | 73.5% | 99.4% |  | 

Now from value to molecule, other results behind:

Row | MIC (Bacillus subtilis [1]) | Activity (Bacillus subtilis [2]) | Activity (Bacillus subtilis [3]) | inhibition (Bacillus subtilis [4]) | Activity (Bacillus subtilis [5]) | fold change (FC) (Bacillus subtilis [7]) | Activity (Escherichia coli [8]) | Activity (Escherichia coli [9]) | Activity (Escherichia coli [10]) | Compound | Ki [6]
5 | 5 µM (≈ 1.77 µg/mL) | 37.4% | 10.1% | 60% | 10.1% | 0.8 to 7.7 | 63.2% | 88.4% |  | COc1cc2oc(-c3ccc(O)cc3O)cc2c(OC)c1CC=C(C)C | 30.9 µM
6 |  | 89.1% | 63.4% |  | 85.1% | 0.8 to 7.7 | 98.3% | 97.7% | 93.1% | CC(C)=CCc1cc(-c2coc3cc(O)cc(O)c3c2=O)cc(O)c1O | 
7 |  | 75.3% | 8% |  | 12.6% |  | 12% | 57.7% | 7.7% | CCN(CC)CCNc1nc(/C=C/c2ccc(Cl)cc2)nc2cc3ccccc3cc12 | 
8 | 40 µM (≈ 15.3 µg/mL) | 74.4% | 17% | 60% | 17.5% | 0.8 to 7.7 | 87.8% | 103% | 88.6% | COc1cc2oc(=O)c(-c3ccc(O)cc3O)cc2c(OC)c1CC=C(C)C [GLYCYRIN] | 42.6 µM
9 | < 20 µM |  |  |  |  |  |  |  |  | NC[C@H]1O[C@H](O[C@H]2[C@H](O)[C@@H](O[C@H]3O[C@H](CO)[C@@H](O)[C@H](N)[C@H]3O)[C@H](N)C[C@@H]2N)[C@H](O)[C@@H](O)[C@@H]1O [KANAMYCIN] | 
